The source made the active and inactive calls.

The record followed here is ChEMBL document CHEMBL1201862, “PubChem BioAssay data set” (2004).

Assay [1] in a line: viability of uninfected HEp-2 cells – cell-based, HTS, cytotoxicity control for RSV inhibitor project, dose response (AID 2410). It is filed as functional. Particulars: human respiratory syncytial virus.
For another assay, the target named is T1, Protein skinhead-1 (Caenorhabditis elegans, UniProt P34707).
T1 sequence (P34707 whole entry): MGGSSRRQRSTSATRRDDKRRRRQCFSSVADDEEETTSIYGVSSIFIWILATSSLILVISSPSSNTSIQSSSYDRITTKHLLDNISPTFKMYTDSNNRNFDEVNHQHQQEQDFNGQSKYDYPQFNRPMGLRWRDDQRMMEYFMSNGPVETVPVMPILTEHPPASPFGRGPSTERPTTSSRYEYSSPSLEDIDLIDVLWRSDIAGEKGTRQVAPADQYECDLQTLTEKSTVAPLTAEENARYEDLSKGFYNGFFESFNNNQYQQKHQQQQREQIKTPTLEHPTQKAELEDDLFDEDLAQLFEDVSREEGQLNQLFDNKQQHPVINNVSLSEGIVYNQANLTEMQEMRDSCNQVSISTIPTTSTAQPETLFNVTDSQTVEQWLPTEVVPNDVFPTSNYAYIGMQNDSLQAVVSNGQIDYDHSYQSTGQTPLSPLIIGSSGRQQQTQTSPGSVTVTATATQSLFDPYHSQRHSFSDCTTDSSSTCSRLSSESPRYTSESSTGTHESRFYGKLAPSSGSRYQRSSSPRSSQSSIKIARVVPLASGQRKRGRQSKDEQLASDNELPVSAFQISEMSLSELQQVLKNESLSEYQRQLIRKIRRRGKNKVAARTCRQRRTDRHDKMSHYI
The class given is functional.

For assay [2], the target named is T2, Heat shock factor protein 1 (Mus musculus, UniProt P38532).
T2 sequence (P38532 whole entry): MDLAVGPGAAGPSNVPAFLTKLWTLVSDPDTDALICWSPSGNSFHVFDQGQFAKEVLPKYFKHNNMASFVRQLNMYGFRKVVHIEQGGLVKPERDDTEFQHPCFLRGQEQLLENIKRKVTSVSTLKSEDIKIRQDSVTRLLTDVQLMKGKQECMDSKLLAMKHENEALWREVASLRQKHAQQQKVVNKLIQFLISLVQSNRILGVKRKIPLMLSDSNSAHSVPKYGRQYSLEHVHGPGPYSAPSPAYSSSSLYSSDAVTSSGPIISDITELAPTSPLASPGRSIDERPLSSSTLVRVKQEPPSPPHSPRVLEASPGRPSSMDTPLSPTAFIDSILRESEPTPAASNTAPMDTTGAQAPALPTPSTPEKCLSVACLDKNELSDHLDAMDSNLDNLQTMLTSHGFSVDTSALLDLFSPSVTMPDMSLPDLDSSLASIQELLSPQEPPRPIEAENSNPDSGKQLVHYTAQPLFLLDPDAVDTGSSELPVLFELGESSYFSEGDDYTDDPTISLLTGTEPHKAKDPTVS
Nature of the assay: enhancement of HSF1-driven luciferase signal – cell-based, NIH3T3, luminescence, dose retest, confirmation (AID 435004).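 Also: stress induced by proteasome inhibitor MG132 added 30 min after compound; luciferase reporter driven by HSF1 response element in NIH3T3 cells; actives raise luminescence as potentiators of the MG132 stress response.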 The class given is functional.

The nature of assay [3]: P. falciparum Dd2 growth inhibitors, dose response, SYBR Green, cherry-picked samples (AID 1159567). It is filed as functional, cell-based.
In another assay the test system is INS1. Put plainly: INS-1E survival protection against cytokine death – cell-based, luminescence, retest, dose response (AID 449756).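 Also: cell death triggered by IL-1 beta plus TNF-alpha plus IFN-gamma mixture; protective hits raise ATP signal compared with cytokine alone wells.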 It is filed as functional. Particulars: Rattus norvegicus.
The nature of assay [4]: reduction of Shn3 3'UTR-driven luciferase in osteoblasts – cell-based, Clone20 osteoblasts, firefly luciferase, cherry-picked, dose response (AID 624132).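 Also: firefly luciferase luminescence from reporter carrying the Shn3 3'UTR in osteoblasts.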 The class given is functional.
Assay [5] can be described thus: non-specific 3'UTR reporter inhibition in Clone20-Shn3RL – cell-based, Renilla luciferase, cherry-picked, counter-screen for Shn3 inhibitor project, dose response (AID 624133). The class given is functional. In general terms: A counterscreen serves to expose hits that act by an unwanted route or on another target.
The target in assay [6] is T3, Ubiquitin-conjugating enzyme E2 N (Homo sapiens, UniProt P61088).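 Also: Dose-response confirmation in a TR-FRET assay detecting UBC13-driven polyubiquitin chain formation, inhibition measured.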
T3 sequence (P61088 whole entry): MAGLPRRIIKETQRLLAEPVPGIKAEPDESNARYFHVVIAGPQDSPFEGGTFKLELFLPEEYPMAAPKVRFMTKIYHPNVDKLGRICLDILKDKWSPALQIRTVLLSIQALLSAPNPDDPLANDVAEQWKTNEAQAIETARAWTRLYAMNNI
The class given is functional.

A short description of assay [7]: blockers of HIV-1 ZM109 envelope-driven cell-cell fusion – HeLa effector, CEM target cells, luciferase, cherry-pick, dose response (AID 652058).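 Also: luciferase signal from HIV-1 Env mediated cell-cell fusion of effector and target cells.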 It is filed as functional, cell-based.
The nature of assay [8]: blockers of HIV-1 envelope-mediated cell-cell fusion – cherry-pick, dose response (AID 652057). It is filed as functional, cell-based.
Assay [9] in a line: HIV-1 AD8 envelope cell-cell fusion blockers – cherry-pick, dose response (AID 652062).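 Also: luciferase signal from cell-cell fusion driven by HIV-1 clade B AD8 Env; potency is for inhibitors of fusion seen as a drop in luminescence.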 The class given is functional, cell-based.
A short description of assay [10]: Luminescence Cell-Based Dose Retest to Confirm Inhibitors of Cancer Stem Cells. [Related pubchem assays (depositor defined):AID2717, AID2721]. It is filed as functional. Particulars: Homo sapiens.
A further assay concerns H4. Put plainly: Luminescence Cell-Based Dose Response HTS to Identify Activators of 5'UTR Stem-Loop Driven Prion Protein mRNA Translation in H4 Neuroglioblastoma Cells. [Related pubchem assays: 1829 (Project Summary), 1814 (Primary HTS)]. It is filed as functional. Particulars: Homo sapiens.
Assay [11] can be described thus: Luminescence Cell-Based Dose Response HTS to Identify Activators of Luciferase Translation or Activity in H4 […] Cells. [Related pubchem assays: 1829 (Project Summary), 1814 (Primary HTS)]. It is filed as functional.
Assay [12] has as its target T4, Fatty acid synthase (Homo sapiens, UniProt P49327). Nature of the assay: inhibition of human FAS-TE enzyme activity – biochemical, kinetic fluorescence intensity, dose response (AID 624326).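 Also: rate of fluorescence rise from hydrolysis of a fluorogenic O-methyl fluorescein ester substrate.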 The class given is functional.
Assay [13] concerns the target T4, Fatty acid synthase. Put plainly: inhibition of human FAS-TE enzyme activity – biochemical, endpoint fluorescence intensity, uHTS hits, dose response (AID 624327).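 Also: fluorescence from hydrolysis of an O-methyl fluorescein acyl ester substrate by the enzyme.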 The class given is functional.
Another assay deals with Cytochrome P450 3A4 (Homo sapiens, UniProt P08684).
Cytochrome P450 3A4, sequence (P08684 whole entry): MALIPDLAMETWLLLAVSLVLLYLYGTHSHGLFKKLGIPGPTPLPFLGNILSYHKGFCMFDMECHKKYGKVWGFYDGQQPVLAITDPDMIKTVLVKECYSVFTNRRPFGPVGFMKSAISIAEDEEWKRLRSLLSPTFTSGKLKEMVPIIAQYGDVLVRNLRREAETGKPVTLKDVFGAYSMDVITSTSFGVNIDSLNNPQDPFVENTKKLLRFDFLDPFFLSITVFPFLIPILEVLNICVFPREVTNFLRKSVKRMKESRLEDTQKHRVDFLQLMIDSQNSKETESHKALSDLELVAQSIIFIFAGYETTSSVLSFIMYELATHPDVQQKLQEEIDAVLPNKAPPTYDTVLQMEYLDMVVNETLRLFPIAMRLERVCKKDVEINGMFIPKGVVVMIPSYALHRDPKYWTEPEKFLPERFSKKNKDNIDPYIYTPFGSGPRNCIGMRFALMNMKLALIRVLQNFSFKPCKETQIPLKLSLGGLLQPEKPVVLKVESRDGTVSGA
In another assay the target is Cytochrome P450 2C19 (Homo sapiens, UniProt P33261). Nature of the assay: Cytochrome panel assay with activity outcomes. Panel member name: p450-cyp2c19 Compounds with AC50 equal or less than 10 uM are considered active. It is filed as functional. Conditions: read-out: AC50.
Cytochrome P450 2C19, sequence (P33261 whole entry): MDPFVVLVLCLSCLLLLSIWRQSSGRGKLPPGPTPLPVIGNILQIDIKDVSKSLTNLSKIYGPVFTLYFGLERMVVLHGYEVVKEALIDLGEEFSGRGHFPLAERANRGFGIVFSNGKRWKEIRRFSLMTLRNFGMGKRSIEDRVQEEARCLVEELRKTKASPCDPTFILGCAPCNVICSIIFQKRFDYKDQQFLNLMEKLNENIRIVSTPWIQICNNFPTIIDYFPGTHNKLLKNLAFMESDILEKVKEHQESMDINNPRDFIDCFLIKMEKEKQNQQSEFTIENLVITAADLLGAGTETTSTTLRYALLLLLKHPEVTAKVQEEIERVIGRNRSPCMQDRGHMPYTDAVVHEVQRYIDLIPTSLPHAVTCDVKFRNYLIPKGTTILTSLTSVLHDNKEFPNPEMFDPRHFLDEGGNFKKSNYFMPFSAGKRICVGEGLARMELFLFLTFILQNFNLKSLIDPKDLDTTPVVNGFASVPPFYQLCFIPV

T4 sequence (P49327 whole entry): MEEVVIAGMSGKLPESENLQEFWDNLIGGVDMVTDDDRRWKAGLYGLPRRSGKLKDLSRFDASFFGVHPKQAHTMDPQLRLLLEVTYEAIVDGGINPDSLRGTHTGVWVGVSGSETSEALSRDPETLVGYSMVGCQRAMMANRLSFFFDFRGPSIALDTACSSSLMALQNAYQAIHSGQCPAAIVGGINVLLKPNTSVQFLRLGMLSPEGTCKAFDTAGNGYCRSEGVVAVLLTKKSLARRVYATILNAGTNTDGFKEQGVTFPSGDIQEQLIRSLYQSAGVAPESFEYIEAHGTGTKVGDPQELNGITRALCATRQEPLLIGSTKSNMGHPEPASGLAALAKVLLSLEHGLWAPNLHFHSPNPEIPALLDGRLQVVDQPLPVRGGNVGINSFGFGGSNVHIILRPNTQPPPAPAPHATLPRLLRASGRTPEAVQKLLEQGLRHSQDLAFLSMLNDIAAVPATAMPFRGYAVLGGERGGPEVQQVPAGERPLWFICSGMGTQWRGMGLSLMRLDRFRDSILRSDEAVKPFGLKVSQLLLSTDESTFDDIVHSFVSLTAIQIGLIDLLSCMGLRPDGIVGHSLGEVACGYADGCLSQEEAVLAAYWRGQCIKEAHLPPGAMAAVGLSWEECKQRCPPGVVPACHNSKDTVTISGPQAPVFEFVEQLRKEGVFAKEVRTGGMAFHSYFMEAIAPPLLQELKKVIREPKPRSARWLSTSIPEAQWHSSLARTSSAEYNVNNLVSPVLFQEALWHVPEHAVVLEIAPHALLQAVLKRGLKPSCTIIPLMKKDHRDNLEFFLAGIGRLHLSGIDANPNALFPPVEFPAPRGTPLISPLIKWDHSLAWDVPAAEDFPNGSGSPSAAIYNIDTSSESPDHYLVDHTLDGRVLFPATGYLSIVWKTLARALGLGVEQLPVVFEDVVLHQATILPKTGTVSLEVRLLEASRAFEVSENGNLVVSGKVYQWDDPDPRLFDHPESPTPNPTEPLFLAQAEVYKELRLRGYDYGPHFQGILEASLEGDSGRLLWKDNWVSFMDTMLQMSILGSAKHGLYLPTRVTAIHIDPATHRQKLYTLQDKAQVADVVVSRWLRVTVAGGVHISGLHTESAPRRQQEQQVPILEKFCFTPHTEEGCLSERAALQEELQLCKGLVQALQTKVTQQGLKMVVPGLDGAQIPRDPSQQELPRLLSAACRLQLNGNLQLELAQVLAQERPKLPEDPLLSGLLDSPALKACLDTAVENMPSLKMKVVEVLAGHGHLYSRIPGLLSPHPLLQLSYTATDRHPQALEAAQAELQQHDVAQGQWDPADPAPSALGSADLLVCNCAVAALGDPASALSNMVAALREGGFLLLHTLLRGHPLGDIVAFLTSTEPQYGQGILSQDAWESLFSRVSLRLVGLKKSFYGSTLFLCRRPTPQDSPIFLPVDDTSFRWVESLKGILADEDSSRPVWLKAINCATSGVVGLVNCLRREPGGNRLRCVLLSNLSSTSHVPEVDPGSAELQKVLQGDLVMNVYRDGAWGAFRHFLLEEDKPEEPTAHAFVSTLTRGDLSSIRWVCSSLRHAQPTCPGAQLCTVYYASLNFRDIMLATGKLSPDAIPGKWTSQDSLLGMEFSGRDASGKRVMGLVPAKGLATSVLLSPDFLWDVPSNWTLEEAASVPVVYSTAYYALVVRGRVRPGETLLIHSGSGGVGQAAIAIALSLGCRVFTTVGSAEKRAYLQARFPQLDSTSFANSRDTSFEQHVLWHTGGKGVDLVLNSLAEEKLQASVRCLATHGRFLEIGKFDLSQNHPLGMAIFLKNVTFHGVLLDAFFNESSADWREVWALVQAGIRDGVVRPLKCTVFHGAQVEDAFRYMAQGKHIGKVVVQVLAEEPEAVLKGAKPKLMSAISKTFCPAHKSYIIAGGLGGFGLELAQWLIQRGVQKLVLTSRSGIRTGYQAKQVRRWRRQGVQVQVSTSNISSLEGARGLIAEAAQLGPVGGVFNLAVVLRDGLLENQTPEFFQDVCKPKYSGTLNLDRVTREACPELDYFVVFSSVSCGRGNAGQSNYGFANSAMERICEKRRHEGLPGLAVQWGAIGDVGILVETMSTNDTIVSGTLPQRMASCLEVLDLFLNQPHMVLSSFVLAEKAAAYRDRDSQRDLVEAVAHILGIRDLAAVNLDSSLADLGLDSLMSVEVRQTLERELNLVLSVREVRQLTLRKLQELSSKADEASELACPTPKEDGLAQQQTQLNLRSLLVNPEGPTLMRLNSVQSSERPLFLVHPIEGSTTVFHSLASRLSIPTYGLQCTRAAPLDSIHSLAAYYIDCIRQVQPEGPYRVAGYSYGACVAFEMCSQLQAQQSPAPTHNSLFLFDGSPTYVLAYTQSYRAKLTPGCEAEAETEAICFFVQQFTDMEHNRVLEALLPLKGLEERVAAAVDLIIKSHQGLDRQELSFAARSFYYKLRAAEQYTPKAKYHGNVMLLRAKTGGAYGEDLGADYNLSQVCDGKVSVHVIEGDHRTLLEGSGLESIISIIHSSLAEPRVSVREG

As to `Cc1ccc(S(=O)(=O)N=C(N)Nc2nc(C)c3ccc(C)cc3n2)cc1`, in [1], the CC50 was > 50 µM (active).
`Cc1cc(N2CCOCC2)nc2ccc(NC(=O)C3CCC(C)CC3)cc12` (centres undefined): the IC50 on Protein skinhead-1 is > 100 µM (inactive).
Regarding `COC(=O)[C@H](CCSC)NC(=O)Nc1cccc(C)c1C`, the EC50 in assay [2] was > 260 µM (inactive).
`C/C=C/c1ccc2c(c1)[C@H]1[C@H](CCN1S(=O)(=O)c1cccc(F)c1)[C@@H](CO)N2`: the half-maximal activity concentration (AC50) in assay [3] was 4.13 µM (active).
As to `CCCNC(=O)N1[C@H](CO)[C@H](c2ccc(-c3ccc(C#N)cc3)cc2)[C@@H]1CNC`, in assay [3], the AC50 was 11.5 µM (active).
For `CCc1ccc(NC2=NC(=O)/C(=C/c3cc(OC)c(OC)c(OC)c3)S2)cc1`, the cytotoxic concentration (CC50) in assay [1] is 21.2 µM (active).
With `Cc1ccc(C2CC(c3cccc(Br)c3)n3nc(N)nc3N2)cc1` (centres undefined), the AC50 in the assay on INS1 was 34.1 µM (active).
In the case of `Cc1sc2ncnc(N3CCN(S(=O)(=O)c4ccccc4)CC3)c2c1C`, the concentration at half-maximal activity (AC50) in assay [4] was 2.3 µM (active); in [5] it was 3.43 µM (active); in the assay on INS1 it was 4.3 µM (active).
On to `COc1ccc(C(CCN2CCCC2)c2c(OC)cc(OC)c3c(-c4ccccc4)cc(=O)oc23)cc1` (centres undefined), for which the IC50 in assay [6] was > 20 µM (inactive).
For the molecule `CC(=O)c1ccc(NC(S)=NCc2cccnc2)cc1`, in the assay on INS1, the half-maximal activity concentration (AC50) is 5.94 µM (active).
For `Nc1c2c(nc3ccc(Br)cc13)N(Cc1ccccc1)CC2`, the half-maximal cytotoxic concentration (CC50) in [1] was 9.17 µM (active).
Same read-out and setting: next, `O=C(CCc1nc(O)c2ccccc2n1)NCCN1C(=O)S/C(=C\c2ccccc2Cl)C1=O`: 23.9 µM (active).
As to `c1ccc2c(C[C@@H]3CNCCN3CCC34CC5CC(CC(C5)C3)C4)cccc2c1`, in assay [6], the IC50 was > 20 µM (inactive).
For `CCCN(C)C[C@H]1Oc2ncc(C#Cc3ccccc3OC)cc2C(=O)N([C@H](C)CO)C[C@H]1C`, the half-maximal activity concentration (AC50) in [3] is 3.28 µM (active).
As to `C=CCN1C(=O)C2(C(C(=O)OCC)=C(N)Oc3ccccc32)C2=C1CCCC2=O` (centres undefined), at Protein skinhead-1, the IC50 is > 100 µM (inactive).
On the same count and under the same terms, next, `O=C(CCN1CCCCCC1)Nc1ccccc1F`: > 100 µM (inactive).
Regarding `O=C(c1ccccc1F)N1C[C@H]2[C@@H](c3ccccc31)[C@@H](CO)N2C(=O)c1ccc(F)cc1`, the half-maximal activity concentration (AC50) in [3] is 35.2 µM (active).
For `C=C1CCC[C@]2(C)C[C@H]3OC(=O)C(CNCCN(C)C)[C@H]3CC12` (some centres undefined), the IC50 at Protein skinhead-1 was > 100 µM (inactive).
Same read-out and setting: next, `COc1ccc2cc(N3CCCC3=O)ccc2c1`: > 100 µM (inactive).
Take `COc1ccc(-c2[nH]ncc2CN2CCN(C3CCCCC3)C(=O)C2)cc1F`: the EC50 in [2] was 216 µM (active).
Regarding `CC(=O)Nc1cccc(OCC(=O)NS(=O)(=O)c2ccc(Cl)cc2)c1`, the IC50 at Protein skinhead-1 is > 100 µM (inactive).
With `CO[C@H]1CN(C)C(=O)c2ccc(NC(=O)C3CCC3)cc2OC[C@H](C)N(CC2CCCCC2)C[C@@H]1C`, the values for the AC50 in [7], in assay [8] and in assay [9] were 1.25 µM (active), 0.592 µM (active) and 1.83 µM (active), respectively.
For the molecule `C[C@H](CO)N1C[C@H](C)[C@H](CN(C)S(=O)(=O)c2cccs2)Oc2ccc(NC(=O)Nc3ccccc3)cc2CC1=O`, the AC50 in [7] is 0.579 µM (active); in assay [8] it was 0.395 µM (active); in assay [9] it was 1.34 µM (active).
On to `Cc1cccc(C)c1NC(=O)N1CCN(c2nc3ccccc3s2)CC1`, for which the AC50 was 1.05 µM (active) in assay [7] and 10 µM (active) in assay [9].
Take `O=c1c2ccccc2ccc2ccccc12`: the 50% inhibitory concentration (IC50) at Protein skinhead-1 is 21.3 µM (active).
Turning to `CO[C@@H]1CN(C)C(=O)c2ccc(NC(=O)c3ccc(F)cc3)cc2OC[C@@H](C)N(C(=O)c2ccc(F)cc2)C[C@@H]1C`, in assay [3], the AC50 is 4.29 µM (active).
`COc1ccccc1-c1oc2ccccc2c1C#CC1(N)CCCCC1`: in assay [10], the AC50 was 5.52 µM (active). For the same molecule, in assay [6], the IC50 was > 20 µM (inactive).
For the molecule `[O-][S+](Cc1cc(Sc2ccccc2)nc(-c2ccccc2)n1)c1ccccc1` (centres undefined), the EC50 in [2] is > 260 µM (inactive).
On to `CCCCOC(=O)c1ccc(NC(=O)CN2C(=O)NC3(CCCCCC3)C2=O)cc1`, for which, in assay [1], the CC50 is 31.9 µM (active).
Consider `NC1=NC[C@@H](Cc2ccc(O)cc2)N1CCc1cc(C(F)(F)F)cc(C(F)(F)F)c1`, for which the IC50 in [6] is > 20 µM (inactive).
Regarding `Nc1cc(-c2nc3ncccc3o2)ccc1Cl`, the concentration giving a half-maximal response (EC50) is > 120 µM (not active) in the assay with H4 and 4.25 µM (active) in assay [11].
On to `O=C(CSc1nnc(COc2ccc(Cl)cc2)o1)NC1CC2CCC1C2` (centres undefined), for which the IC50 at Protein skinhead-1 is > 100 µM (inactive).
For the molecule `O=C(Nc1ccc(Nc2ccccc2)cc1)c1cc([N+](=O)[O-])ccc1Cl`, in [2], the EC50 was 5.63 µM (active). Moreover, the concentration at half-maximal activity (AC50) in [10] is 9.07 µM (active). The 50% inhibitory concentration (IC50) is 14 µM (active) on Fatty acid synthase [12] and 11.1 µM (active) at Fatty acid synthase [13].
On to `COc1ccc(-c2cc(-c3cccs3)nc(OC)c2C#N)cc1OC`, for which the IC50 in [6] is > 20 µM (inactive).
Consider `O=C(C1CC(c2ccc(F)cc2)=NO1)N1CCCCC1` (centres undefined), for which the results for the EC50 (with H4; in [11]) were 33.4 µM (active) and 5.56 µM (active), respectively.
`CC(=O)C1=C(C)NC(SCC(=O)c2ccc(Cl)cc2)=C(C#N)C1CC(C)C` (centres undefined): the cytotoxic concentration (CC50) in assay [1] is 23.4 µM (active).
As for `O=C(Nc1ccc(Br)cc1)c1ccc(CSC2=NCCS2)cc1`, the EC50 in the assay with H4 is 99.7 µM (active); in [11], 3.81 µM (active). In addition, the AC50 on Cytochrome P450 3A4 was 3.55 µM (inconclusive); on Cytochrome P450 2C19, 11.2 µM (inconclusive).
As for `Cc1ccc(CSc2nnc(-c3ccco3)o2)cc1`, on Protein skinhead-1, the half-inhibitory concentration (IC50) was 22 µM (active).

The CC50 is the concentration giving 50% cytotoxicity. Broadly, the IC50 is the midpoint of a concentration-inhibition curve. By EC50 is commonly meant the concentration needed to bring the measured effect to its halfway point. A word on the AC50: it is the concentration at which the activity in the assay is half-maximal.
